Assay results from patent US20230049231A1 (priority 2019, published 2023).

Key:
hERG channel = target: T1, hERG channel (Homo sapiens, UniProt Q12809); experiment: hERG electrophysiology, automated whole-cell patch clamp (Patchliner); type: cell-based
T1 construct: expressed in transfected cells
Method in brief: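 Currents were recorded at 0.3 Hz from −80 mV, stepping to +20 mV then −50 mV (300 ms each), in stably transfected CHO-K1 cells. Concentrations (30 nM–100 μM, up to 0.3% DMSO) were added sequentially without washout. IC50 came from Hill fits of control-normalized AUC/peak of each train's final pulse.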

Kv1.3 potassium channel = target: T2, Kv1.3 potassium channel (Homo sapiens, UniProt P22001); experiment: Kv1.3 potassium channel blocker activity, automated whole-cell patch clamp (Patchliner); type: cell-based
T2 construct: expressed in transfected cells
T2 sequence (P22001 whole entry): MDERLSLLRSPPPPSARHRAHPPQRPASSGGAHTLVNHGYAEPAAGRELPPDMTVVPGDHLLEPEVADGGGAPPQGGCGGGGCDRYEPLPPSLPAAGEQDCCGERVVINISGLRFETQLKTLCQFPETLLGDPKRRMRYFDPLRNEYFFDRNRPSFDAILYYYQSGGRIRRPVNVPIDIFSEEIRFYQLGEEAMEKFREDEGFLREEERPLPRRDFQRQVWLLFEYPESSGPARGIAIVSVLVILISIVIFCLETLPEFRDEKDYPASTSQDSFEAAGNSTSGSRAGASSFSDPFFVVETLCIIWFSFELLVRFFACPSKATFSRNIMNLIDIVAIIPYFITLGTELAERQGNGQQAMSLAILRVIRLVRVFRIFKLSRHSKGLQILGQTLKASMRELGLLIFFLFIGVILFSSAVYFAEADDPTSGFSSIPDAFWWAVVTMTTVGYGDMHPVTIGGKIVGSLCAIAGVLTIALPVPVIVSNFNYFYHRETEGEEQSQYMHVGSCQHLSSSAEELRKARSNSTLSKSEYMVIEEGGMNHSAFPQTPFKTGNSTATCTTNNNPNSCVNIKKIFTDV
Method in brief: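 IC50 came from Hill-equation fits of peak and AUC currents from the final pulse at each concentration, normalized to compound-free control. Compounds applied consecutively at 30 nM to 100 μM (up to 0.3% DMSO) to Kv1.3-expressing CHO-K1 cells, P/4 leak subtraction. Pulses were +40 mV, 100 ms, from −90 mV holding, at 0.1 Hz on Patchliner.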

[1] = hERG channel, whole-cell patch clamp
[2] = Kv1.3 potassium channel, whole-cell patch clamp
[3] = CHO-K1 cells stably expressing hERG, +20 mV 300 ms, -50 mV 300 ms tail current, 0.3 Hz
[4] = CHO-K1 cells stably expressing Kv1.3, 100 ms pulses from -90 mV to +40 mV, 0.1 Hz

T1 sequence (Q12809 whole entry): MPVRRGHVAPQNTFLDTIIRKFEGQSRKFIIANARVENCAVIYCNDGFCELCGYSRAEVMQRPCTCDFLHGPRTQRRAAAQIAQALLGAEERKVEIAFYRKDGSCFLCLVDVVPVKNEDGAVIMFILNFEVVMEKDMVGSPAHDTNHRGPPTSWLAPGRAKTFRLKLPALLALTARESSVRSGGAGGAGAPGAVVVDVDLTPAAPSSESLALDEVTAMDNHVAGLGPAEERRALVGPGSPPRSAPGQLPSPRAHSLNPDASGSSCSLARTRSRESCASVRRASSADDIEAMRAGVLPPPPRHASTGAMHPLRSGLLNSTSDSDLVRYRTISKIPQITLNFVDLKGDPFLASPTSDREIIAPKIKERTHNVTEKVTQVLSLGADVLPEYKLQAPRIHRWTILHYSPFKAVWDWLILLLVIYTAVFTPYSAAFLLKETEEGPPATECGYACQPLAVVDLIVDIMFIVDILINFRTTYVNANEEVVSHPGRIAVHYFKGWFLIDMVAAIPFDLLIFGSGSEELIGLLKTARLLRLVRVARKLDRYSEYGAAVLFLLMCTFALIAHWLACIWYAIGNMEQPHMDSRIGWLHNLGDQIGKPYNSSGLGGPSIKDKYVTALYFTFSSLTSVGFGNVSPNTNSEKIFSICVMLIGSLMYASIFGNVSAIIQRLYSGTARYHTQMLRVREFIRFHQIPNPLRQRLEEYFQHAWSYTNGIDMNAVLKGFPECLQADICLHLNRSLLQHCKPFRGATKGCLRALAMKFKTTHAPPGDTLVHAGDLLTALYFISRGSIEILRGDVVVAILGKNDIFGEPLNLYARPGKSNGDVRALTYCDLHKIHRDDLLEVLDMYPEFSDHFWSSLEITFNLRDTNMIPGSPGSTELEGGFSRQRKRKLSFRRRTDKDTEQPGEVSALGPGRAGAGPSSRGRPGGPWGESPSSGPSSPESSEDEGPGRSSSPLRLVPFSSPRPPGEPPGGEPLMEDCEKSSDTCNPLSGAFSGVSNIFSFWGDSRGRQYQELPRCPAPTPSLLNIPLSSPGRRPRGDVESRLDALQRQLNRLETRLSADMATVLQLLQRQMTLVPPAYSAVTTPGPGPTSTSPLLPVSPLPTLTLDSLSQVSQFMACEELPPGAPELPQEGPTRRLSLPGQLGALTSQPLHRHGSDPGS

O=C1CN(C[C@H](O)CO)C[C@@H]2C[C@H](c3c(O)ccc(Cl)c3Cl)CN12 (single isomer, unassigned; isomer 2) [Compound 115]
IC50 (hERG channel; [1]): > 30 µM
IC50 (Kv1.3 potassium channel; [2]): < 1 µM

C[C@@H](CO)N1CC(=O)N2C[C@@H](c3c(O)ccc(Cl)c3Cl)C[C@H]2C1 (single isomer, unassigned; isomer 2) [Compound 117]
IC50 (hERG channel; [1]): > 30 µM
IC50 (Kv1.3 potassium channel; [2]): < 1 µM

COC[C@@H](CO)N1CC(=O)N2C[C@@H](c3c(O)ccc(Cl)c3Cl)C[C@H]2C1 (single isomer, unassigned; isomer 2) [Compound 119]
IC50 (hERG channel; [1]): > 30 µM
IC50 (Kv1.3 potassium channel; [2]): < 1 µM

C[C@H](C1CNC1)N1CC(=O)N2C[C@@H](c3c(O)ccc(Cl)c3Cl)C[C@H]2C1 (single isomer, unassigned; isomer 2) [Compound 138]
IC50 (hERG channel; [1]): > 30 µM
IC50 (Kv1.3 potassium channel; [2]): < 1 µM

O=C1CN(C[C@H]2CCN2)C[C@@H]2C[C@H](c3c(O)ccc(Cl)c3Cl)CN12 (single isomer, unassigned; isomer 2) [Compound 140]
IC50 (hERG channel; [1]): > 30 µM
IC50 (Kv1.3 potassium channel; [2]): < 1 µM

C[C@H](O)CN1CC(=O)N2C[C@@H](c3c(O)ccc(Cl)c3Cl)C[C@H]2C1 (single isomer, unassigned; isomer 2) [Compound 151]
IC50 (hERG channel; [1]): > 30 µM
IC50 (Kv1.3 potassium channel; [2]): < 1 µM

COC[C@H](O)CN1CC(=O)N2C[C@@H](c3c(O)ccc(Cl)c3Cl)C[C@H]2C1 (single isomer, unassigned; isomer 2) [Compound 153]
IC50 (hERG channel; [1]): < 30 µM
IC50 (Kv1.3 potassium channel; [2]): < 1 µM

O=C1C[C@H](N2CC(=O)N3C[C@@H](c4c(O)ccc(Cl)c4Cl)C[C@H]3C2)CN1 (single isomer, unassigned; isomer 2) [Compound 161]
IC50 (hERG channel; [1]): > 30 µM
IC50 (Kv1.3 potassium channel; [2]): < 1 µM

O=C1CN([C@H]2C[C@@](O)(CO)C2)C[C@@H]2C[C@H](c3c(O)ccc(Cl)c3Cl)CN12 (single isomer, unassigned; isomer 2) [Compound 164]
IC50 (hERG channel; [1]): > 30 µM
IC50 (Kv1.3 potassium channel; [2]): < 1 µM

O=C1CC(N2CCNCC2)C[C@@H]2C[C@H](c3c(O)ccc(Cl)c3Cl)CN12 (stereo in doubt) [Compound 208, (2R,7R,8aS)-2-(2,3-dichloro-6-hydroxyphenyl)-7-(piperazin-1-yl)hexahydroindolizin-5(1H)-one]
IC50 (hERG channel; [1]): < 10 µM
IC50 (Kv1.3 potassium channel; [2]): < 1 µM

O=C(CO)N1CC(=O)N2CC[C@@H](c3c(O)ccc(Cl)c3Cl)C[C@H]2C1 [Compound 1, (8R,9aS)-8-(2,3-dichloro-6-hydroxyphenyl)-2-(2-hydroxyacetyl)-hexahydro-1H-pyrido[1,2-a]pyrazin-4-one]
IC50 (hERG channel; [3]): > 30 µM
IC50 (Kv1.3 potassium channel; [4]): < 1 µM

O=C1CN(CCO)C[C@@H]2C[C@H](c3c(O)ccc(Cl)c3Cl)CN12 [Compound 2, (7R,8aS)-7-(2,3-dichloro-6-hydroxyphenyl)-2-(2-hydroxyethyl)-hexahydropyrrolo[1,2-a]pyrazin-4-one]
IC50 (hERG channel; [3]): > 30 µM
IC50 (Kv1.3 potassium channel; [4]): < 1 µM

COC[C@@H](O)C(=O)N1CC(=O)N2CC[C@@H](c3c(O)ccc(Cl)c3Cl)C[C@H]2C1 [Compound 4, (8R,9aS)-8-(2,3-dichloro-6-hydroxyphenyl)-2-[(2R)-2-hydroxy-3-methoxypropanoyl]-hexahydro-1H-pyrido[1,2-a]pyrazin-4-one]
IC50 (hERG channel; [3]): > 30 µM
IC50 (Kv1.3 potassium channel; [4]): < 1 µM

CCC(=O)N1CC(=O)N2C[C@@H](c3c(O)ccc(Cl)c3Cl)C[C@H]2C1 [Compound 8, (7R,8aS)-7-(2,3-dichloro-6-hydroxyphenyl)-2-pro-pionylhexahydropyrrolo [1,2-a]pyrazin-4(1H)-one]
IC50 (hERG channel; [3]): < 30 µM
IC50 (Kv1.3 potassium channel; [4]): < 1 µM

CC[C@H](O)C(=O)N1CC(=O)N2CC[C@@H](c3c(O)ccc(Cl)c3Cl)C[C@H]2C1 [Compound 9, (8R,9aS)-8-(2,3-dichloro-6-hydroxyphenyl)-2-[(2S)-2-hydroxybutanoyl]-hexahydro-1H-pyrido[1,2-a]pyrazin-4-one]
IC50 (hERG channel; [3]): > 30 µM
IC50 (Kv1.3 potassium channel; [4]): < 1 µM

O=C(CCO)N1CC(=O)N2CC[C@@H](c3c(O)ccc(Cl)c3Cl)C[C@H]2C1 [Compound 11, (8R,9aS)-8-(2,3-dichloro-6-hydroxyphenyl)-2-(3-hydroxypropanoyl)octahydro-4H-pyrido[1,2-a]pyrazin-4-one]
IC50 (hERG channel; [3]): > 30 µM
IC50 (Kv1.3 potassium channel; [4]): < 1 µM

CO[C@H](CO)C(=O)N1CC(=O)N2C[C@@H](c3c(O)ccc(Cl)c3Cl)C[C@H]2C1 [Compound 14, (7R,8aS)-7-(2,3-dichloro-6-hydroxyphenyl)-2-[(2R)-3-hydroxy-2-methoxypropanoyl]-hexahydropyrrolo[1,2-a]pyrazin-4-one]
IC50 (hERG channel; [3]): > 30 µM
IC50 (Kv1.3 potassium channel; [4]): < 1 µM

O=C1CNC[C@@H]2C[C@H](c3c(O)ccc(Cl)c3Cl)CCN12 [Compound 15]
IC50 (hERG channel; [3]): < 30 µM
IC50 (Kv1.3 potassium channel; [4]): < 1 µM

C[C@@H](O)C(=O)N1CC(=O)N2CC[C@@H](c3c(O)ccc(Cl)c3Cl)C[C@H]2C1 [Compound 16, (8R,9aS)-8-(2,3-dichloro-6-hydroxyphenyl)-2-[(2R)-2-hydroxypropanoyl]-hexahydro-1H-pyrido[1,2-a]pyrazin-4-one]
IC50 (hERG channel; [3]): > 30 µM
IC50 (Kv1.3 potassium channel; [4]): < 1 µM

O=C(CCO)N1CC(=O)N2C[C@@H](c3c(O)ccc(Cl)c3Cl)C[C@H]2C1 [Compound 17, (7R,8aS)-7-(2,3-dichloro-6-hydroxyphenyl)-2-(3-hydroxypropanoyl)hexa-hydropyrrolo[1,2-a]pyrazin-4(1H)-one]
IC50 (hERG channel; [3]): > 30 µM
IC50 (Kv1.3 potassium channel; [4]): < 1 µM

O=C(CO)N1CCC(=O)N2C[C@@H](c3c(O)ccc(Cl)c3Cl)C[C@H]2C1 [Compound 18, (8R,9aS)-8-(2,3-dichloro-6-hydroxyphenyl)-2-(2-hydroxyacetyl)-hexahydro-1H-pyrrolo[1,2-a][1,4]diazepin-5-one]
IC50 (hERG channel; [3]): > 30 µM
IC50 (Kv1.3 potassium channel; [4]): < 1 µM

CC[C@@H](O)C(=O)N1CC(=O)N2CC[C@@H](c3c(O)ccc(Cl)c3Cl)C[C@H]2C1 [Compound 21, (8R,9aS)-8-(2,3-dichloro-6-hydroxyphenyl)-2-[(2R)-2-hydroxybutanoyl]-hexahydro-1H-pyrido[1,2-a]pyrazin-4-one]
IC50 (hERG channel; [3]): < 30 µM
IC50 (Kv1.3 potassium channel; [4]): < 1 µM

O=C([C@@H](O)CO)N1CC(=O)N2CC[C@@H](c3c(O)ccc(Cl)c3Cl)C[C@H]2C1 [Compound 23, (8R,9aS)-8-(2,3-dichloro-6-hydroxyphenyl)-2-[(2S)-2,3-dihydroxypropanoyl]-hexahydro-1H-pyrido[1,2-a]pyrazin-4-one]
IC50 (hERG channel; [3]): > 30 µM
IC50 (Kv1.3 potassium channel; [4]): < 1 µM

O=C(CO)N1CC(=O)N2CC(c3c(O)ccc(Cl)c3Cl)C[C@H]2C1 (stereo partly drawn) [Compound 24, (8aS)-7-(2,3-dichloro-6-hydroxyphenyl)-2-(2-hydroxyacetyl)-hexahydropyrrolo[1,2-a]pyrazin-4-one]
IC50 (hERG channel; [3]): > 30 µM
IC50 (Kv1.3 potassium channel; [4]): < 1 µM

CC1[C@@H]2C[C@H](c3c(O)ccc(Cl)c3Cl)CCN2C(=O)CN1C(=O)CO (stereo partly drawn) [Compound 25, (8R,9aS)-8-(2,3-dichloro-6-hydroxypheny1)-2-(2-hydroxyacetyl)-1-methyl-hexahydro-1H-pyrido[1,2-a]pyrazin-4-one]
IC50 (hERG channel; [3]): > 30 µM
IC50 (Kv1.3 potassium channel; [4]): < 1 µM

CO[C@H](CO)C(=O)N1CC(=O)N2CC[C@@H](c3c(O)ccc(Cl)c3Cl)C[C@H]2C1 [Compound 29, (8R,9aS)-8-(2,3-dichloro-6-hydroxyphenyl)-2-[(2R)-3-hydroxy-2-methoxypropanoyl]-hexahydro-1H-pyrido[1,2-a]pyrazin-4-one]
IC50 (hERG channel; [3]): > 30 µM
IC50 (Kv1.3 potassium channel; [4]): < 1 µM

O=C1CNC[C@@H]2CC(c3c(O)ccc(Cl)c3Cl)CN12 (stereo partly drawn) [Compound 33, (8aS)-7-(2,3-dichloro-6-hydroxyphenyl)-hexahydro-1H-pyrrolo[1,2-a]pyrazin-4-one trifluoroacetic acid]
IC50 (hERG channel; [3]): < 30 µM
IC50 (Kv1.3 potassium channel; [4]): < 1 µM

O=C([C@@H](O)CO)N1CC(=O)N2C[C@@H](c3c(O)ccc(Cl)c3Cl)C[C@H]2C1 [Compound 34, (7R,8aS)-7-(2,3-dichloro-6-hydroxyphenyl)-2-[(2S)-2,3-dihydroxypropanoyl]-hexahydropyrrolo [1,2-a]pyrazin-4-one]
IC50 (hERG channel; [3]): > 30 µM
IC50 (Kv1.3 potassium channel; [4]): < 1 µM

CCNC(=O)N1CC(=O)N2C[C@@H](c3c(O)ccc(Cl)c3Cl)C[C@H]2C1 [Compound 35, (7R,8aS)-7-(2,3-dichloro-6-hydroxyphenyl)-N-ethyl-4-oxo-hexahydropyrrolo[1,2-a]pyrazine-2-carboxamide]
IC50 (hERG channel; [3]): > 30 µM
IC50 (Kv1.3 potassium channel; [4]): < 1 µM

CNC(=O)N1CC(=O)N2C[C@@H](c3c(O)ccc(Cl)c3Cl)C[C@H]2C1 [Compound 37, (7R,8aS)-7-(2,3-dichloro-6-hydroxyphenyl)-N-methyl-4-oxo-hexahydropyrrolo[1,2-a]pyrazine-2-carboxamide]
IC50 (hERG channel; [3]): > 30 µM
IC50 (Kv1.3 potassium channel; [4]): < 1 µM

O=C(CO)N1CC(=O)N2CC[C@@H](c3c(O)cc(Cl)c(Cl)c3Cl)C[C@H]2C1 [Compound 38, (8R,9aS)-2-(2-hydroxyacetyl)-8-(2,3,4-trichloro-6-hydroxyphenyl)octahydro-4H-pyrido[1,2-a]pyrazin-4-one]
IC50 (hERG channel; [3]): > 30 µM
IC50 (Kv1.3 potassium channel; [4]): < 1 µM

CN(C)CC(=O)N1CC(=O)N2CC[C@@H](c3c(O)ccc(Cl)c3Cl)C[C@H]2C1 [Compound 40, (8R,9aS)-8-(2,3-dichloro-6-hydroxyphenyl)-2-[2-(dimethylamino)acetyl]-hexahydro-1H-pyrido[1,2-a]pyrazin-4-one]
IC50 (hERG channel; [3]): < 30 µM
IC50 (Kv1.3 potassium channel; [4]): < 1 µM

N#CCC(=O)N1CC(=O)N2C[C@@H](c3c(O)ccc(Cl)c3Cl)C[C@H]2C1 [Compound 41, 3-[(7R,8aS)-7-(2,3-dichloro-6-hydroxypheny1)-4-oxo-hexahydropyrrolo[1,2-a]pyrazin-2-yl]-3-oxopropanenitrile]
IC50 (hERG channel; [3]): > 30 µM
IC50 (Kv1.3 potassium channel; [4]): < 1 µM
